Test results reported in ChEMBL document CHEMBL1133858, “BMS-196085: a potent and selective full agonist of the human beta(3) adrenergic receptor” (Bioorg Med Chem Lett, 2001).

Tests used:
[1] = test system: ADRB2+ADRB3 (+); test: Tested for binding selectivity to beta3 adrenoceptor versus beta2 adrenoceptor
[2] = test system: ADRB1+ADRB3 (+); test: Tested for binding selectivity to beta3 adrenoceptor versus beta-1 adrenoceptor
[3] = target: T1, Beta-3 adrenergic receptor (Homo sapiens, UniProt P13945); test: Agonist activity was assessed by measurement of cAMP accumulation levels in CHO membranes expressing human beta-3 receptor; assay type: functional, cell membranes
Target sequence in this assay (P13945 whole entry, looked up): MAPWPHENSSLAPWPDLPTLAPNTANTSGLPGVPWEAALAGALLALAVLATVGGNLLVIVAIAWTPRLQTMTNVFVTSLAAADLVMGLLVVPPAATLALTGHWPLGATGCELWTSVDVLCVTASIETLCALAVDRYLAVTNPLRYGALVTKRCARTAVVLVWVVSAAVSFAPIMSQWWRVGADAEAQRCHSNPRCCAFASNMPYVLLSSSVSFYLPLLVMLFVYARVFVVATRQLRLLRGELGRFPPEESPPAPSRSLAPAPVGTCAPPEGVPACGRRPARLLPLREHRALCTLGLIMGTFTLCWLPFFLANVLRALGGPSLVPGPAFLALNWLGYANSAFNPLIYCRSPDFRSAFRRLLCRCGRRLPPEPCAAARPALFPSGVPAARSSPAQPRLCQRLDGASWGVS

[4] = target: T1, Beta-3 adrenergic receptor; test: Binding affinity to CHO cells expressing the cloned human beta-3 adrenergic receptor in the presence of [125I]iodocyanopindolol; assay type: cell-based
Target sequence in this assay (P13945 whole entry): as the sequence (P13945 whole entry, looked up) above

[5] = target: Beta-1 adrenergic receptor (Cavia porcellus) (UniProt B0FL73); test: Beta1 receptor intrinsic activity is given as a percent of the maximal increase in the beating rate of an isolated spontaneously beating guinea pig atrium induced by isoproterenol; assay type: functional, tissue-based; details: Cardiac atrium
Chain of Beta-1 adrenergic receptor (Cavia porcellus) (B0FL73 1-467): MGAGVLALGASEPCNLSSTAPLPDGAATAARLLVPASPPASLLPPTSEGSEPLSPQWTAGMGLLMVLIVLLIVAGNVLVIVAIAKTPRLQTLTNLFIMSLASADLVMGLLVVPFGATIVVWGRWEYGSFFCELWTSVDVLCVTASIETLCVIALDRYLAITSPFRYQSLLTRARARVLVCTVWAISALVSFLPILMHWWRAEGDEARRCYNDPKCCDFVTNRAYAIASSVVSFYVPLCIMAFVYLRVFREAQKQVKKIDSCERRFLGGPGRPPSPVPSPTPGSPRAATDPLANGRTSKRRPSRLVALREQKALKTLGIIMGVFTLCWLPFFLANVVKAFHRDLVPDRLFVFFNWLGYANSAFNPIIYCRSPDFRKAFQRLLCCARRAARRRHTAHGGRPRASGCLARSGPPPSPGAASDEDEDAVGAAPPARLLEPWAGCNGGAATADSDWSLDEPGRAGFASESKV

[6] = In vivo effective dose for lipolysis in african monkeys after iv administration; assay type: functional; details: Cercopithecidae
[7] = Dose that produced tachycardia in african green monkeys after iv administration; assay type: functional, Cercopithecidae
[8] = Tested for lowest dose required to produce change in plasma potassium level divided by effective dose for lipolysis african green monkey 30 min after iv administration; assay type: functional, Cercopithecidae
[9] = Tested for Lowest dose required to produce tachycardia divided by effective dose for lipolysis african green monkey 30 min after iv administration; assay type: functional, Cercopithecidae
[10] = target: T1, Beta-3 adrenergic receptor; test: Human beta-3 receptor agonist activity was assessed by measurement of cAMP accumulation levels in CHO cells expressing human beta-3 receptor; assay type: functional, cell-based
Target sequence in this assay (P13945 whole entry, looked up): as the sequence (P13945 whole entry, looked up) above

[11] = target: Beta-3 adrenergic receptor (Mus musculus, UniProt P25962); test: Tested for binding affinity to murine Beta-3 adrenergic receptor
Chain of Beta-3 adrenergic receptor (Mus musculus, UniProt P25962) (P25962 whole entry): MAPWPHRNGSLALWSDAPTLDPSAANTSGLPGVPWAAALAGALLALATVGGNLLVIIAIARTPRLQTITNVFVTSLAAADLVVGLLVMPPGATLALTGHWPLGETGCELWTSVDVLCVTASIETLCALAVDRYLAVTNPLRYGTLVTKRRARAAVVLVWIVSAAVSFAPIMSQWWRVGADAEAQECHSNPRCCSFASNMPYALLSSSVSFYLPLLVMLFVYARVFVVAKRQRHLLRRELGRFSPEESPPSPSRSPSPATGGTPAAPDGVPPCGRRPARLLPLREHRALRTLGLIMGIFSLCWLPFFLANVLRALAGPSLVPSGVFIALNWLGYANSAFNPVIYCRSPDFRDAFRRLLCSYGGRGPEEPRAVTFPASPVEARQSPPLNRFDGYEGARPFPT

[12] = species on record: Homo sapiens; test: Transdermal flux across human cadaver skin; assay type: functional
[13] = Tested for Clearance upon iv administration to african green monkey; assay type: ADME, organism-based; details: cercopithecidae, in vivo
[14] = Tested for half life upon iv administration to african green monkey; assay type: ADME, organism-based; details: cercopithecidae, in vivo
[15] = Tested for volume of distribution upon iv administration to african green monkey; assay type: ADME, organism-based; details: cercopithecidae, in vivo
[16] = target: Beta-2 adrenergic receptor (Homo sapiens) (UniProt P07550); test: Tested for Intrinsic activity (IA) against adenylate cyclase in CHO cells transfected with human beta-2 adrenoceptor; assay type: functional, cell-based
Chain of Beta-2 adrenergic receptor (Homo sapiens) (P07550 whole entry, looked up): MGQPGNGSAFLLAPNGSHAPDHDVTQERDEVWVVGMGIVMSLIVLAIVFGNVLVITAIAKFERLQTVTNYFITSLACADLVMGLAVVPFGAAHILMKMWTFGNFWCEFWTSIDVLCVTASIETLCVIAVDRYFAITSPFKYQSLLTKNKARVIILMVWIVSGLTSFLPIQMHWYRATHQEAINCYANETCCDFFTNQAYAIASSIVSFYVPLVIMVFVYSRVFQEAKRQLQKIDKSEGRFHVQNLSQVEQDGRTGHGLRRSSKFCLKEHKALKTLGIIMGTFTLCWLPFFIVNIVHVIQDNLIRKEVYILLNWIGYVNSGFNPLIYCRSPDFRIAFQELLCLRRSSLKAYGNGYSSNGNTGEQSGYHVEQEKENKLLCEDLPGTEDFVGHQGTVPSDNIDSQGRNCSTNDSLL

[17] = target: Beta-1 adrenergic receptor (Homo sapiens) (UniProt P08588); test: Tested for Intrinsic activity (IA) against adenylate cyclase in CHO cells transfected with human beta-1 adrenoceptor; assay type: functional, cell-based
Chain of Beta-1 adrenergic receptor (Homo sapiens) (P08588 whole entry, looked up): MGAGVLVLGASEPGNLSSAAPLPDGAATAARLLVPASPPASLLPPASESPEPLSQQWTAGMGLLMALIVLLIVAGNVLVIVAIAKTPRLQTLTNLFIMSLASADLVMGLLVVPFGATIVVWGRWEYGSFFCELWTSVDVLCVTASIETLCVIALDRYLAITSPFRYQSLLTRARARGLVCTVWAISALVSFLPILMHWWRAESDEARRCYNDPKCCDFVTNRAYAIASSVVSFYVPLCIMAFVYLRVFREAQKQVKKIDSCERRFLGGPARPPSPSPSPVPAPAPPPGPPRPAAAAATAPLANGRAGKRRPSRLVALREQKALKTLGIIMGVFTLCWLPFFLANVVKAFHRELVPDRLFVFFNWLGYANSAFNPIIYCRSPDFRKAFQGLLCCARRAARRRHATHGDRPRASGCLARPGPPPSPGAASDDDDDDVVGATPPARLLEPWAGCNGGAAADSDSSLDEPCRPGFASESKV

[18] = Oral systemic bioavailability […] to african green monkey; assay type: ADME, organism-based; details: cercopithecidae, in vivo, read-out: Bioavailabiility
[19] = Lowest dose required to produce statistically significant tachycardia divided by ED50 for lipolysis in african green monkeys after 30 min (iv); assay type: functional, Cercopithecidae
[20] = Lowest dose required to produce statistically significant hypokalemia divided by ED50 for lipolysis in african green monkeys after 30 min (iv); assay type: functional, Cercopithecidae
[21] = Tested for Lowest dose required to produce change in plasma potassium level divided by effective dose for lipolysis african green monkey 30 min after iv administration; assay type: functional, Cercopithecidae

Row | Compound | Selectivity ratio [1] | Selectivity ratio [2] | Intrinsic activity [3] [%] | Ki [4] [nM] | further results
1 | CS(=O)(=O)Nc1cc(C(O)CNC(Cc2ccccc2)c2ccncc2)ccc1O (stereo unspecified) | 8 | 30 | 129 | 700 | –
2 | COc1ccc([C@@H](Cc2ccccc2)NC[C@H](O)c2ccc(O)c(NS(C)(=O)=O)c2)c(OC)n1 | – | – | 94 | 15 | Activity [5]: 60%
3 | COc1ccc([C@@H](Cc2ccccc2)NC[C@H](O)c2ccc(O)c(NS(C)(=O)=O)c2)c2ccccc12 | 9 | 46 | 85 | 26 | Activity [5]: 22%
4 | C[C@](Cc1ccccc1)(NC[C@H](O)c1ccc(O)c(NS(C)(=O)=O)c1)c1ccc(OC(F)F)cc1 | 14 | 12 | – | 9 | –
5 | CS(=O)(=O)Nc1cc([C@@H](O)CNC(Cc2ccccc2)c2ccc(OC(F)(F)F)cc2)ccc1O (stereo partly specified) | 2 | 25 | – | 210 | –
6 | COc1ccc([C@@H](Cc2ccccc2)NC[C@H](O)c2ccc(O)c(NS(C)(=O)=O)c2)cn1 | 30 | 180 | 101 | 25 | Activity [5]: 70%
7 | Cc1cc([C@@H](Cc2ccccc2)NC[C@H](O)c2ccc(O)c(NS(C)(=O)=O)c2)ccc1OC(F)F | – | – | – | 69 | –
8 | COC(=O)c1ccc([C@@H](Cc2ccccc2)NC[C@H](O)c2ccc(O)c(NS(C)(=O)=O)c2)cc1 | – | – | 98 | 85 | –
9 | CS(=O)(=O)Nc1cc(C(O)CNC(Cc2ccccc2)c2ccc(S(C)(=O)=O)cc2)ccc1O (stereo unspecified) | 3 | 53 | 129 | 440 | –
10 | CS(=O)(=O)Nc1cc([C@@H](O)CN[C@H](Cc2ccccc2)c2ccc(CC(N)=O)cc2)ccc1O | 2 | 17 | 106 | 74 | –
11 | CS(=O)(=O)Nc1cc([C@@H](O)CN[C@H](Cc2ccccc2)c2ccc(C(N)=O)cc2)ccc1O | – | – | 108 | 70 | –
12 | CS(=O)(=O)Nc1cc([C@@H](O)CN[C@H](Cc2ccccc2)c2ccc3c(c2)OCO3)ccc1O | 8 | 52 | 94 | 8 | ED50 [6]: 0.02 mg/kg; Dose [7]: 0.1 mg/kg; Margin before onset of hypokalemia [8]: 2; Activity [5]: 80%; Margin before onset of tachycardia [9]: 1
13 | CS(=O)(=O)Nc1cc([C@@H](O)CN[C@H](Cc2ccccc2)c2ccc(OC(F)F)c(OC(F)F)c2)ccc1O | 0.4 | 37 | – | 38 | –
14 | CS(=O)(=O)Nc1cc([C@@H](O)CN[C@H](Cc2ccccc2)c2ccc(C(=O)O)cc2)ccc1O | 6 | 17 | 123 | 8600 | –
15 | CNC(=O)c1ccc([C@@H](Cc2ccccc2)NC[C@H](O)c2ccc(O)c(NS(C)(=O)=O)c2)cc1 | 3 | 79 | 102 | 120 | –
16 | CS(=O)(=O)Nc1cc(C(O)CNC(Cc2ccccc2)c2ccccc2)ccc1O (stereo unspecified) | 3 | 15 | – | 360 | Intrinsic activity [10]: 133%
17 | CS(=O)(=O)Nc1cc(C(O)CNC(Cc2ccccc2)c2ccc(F)cc2)ccc1O (stereo unspecified) | – | – | 100 | 836 | –
18 | CS(=O)(=O)Nc1cc([C@@H](O)CN[C@H](Cc2ccccc2)c2ccc(C#N)cc2)ccc1O | 4 | 30 | 107 | 210 | –
19 | CS(=O)(=O)Nc1cc([C@@H](O)CN[C@H](Cc2ccccc2)c2ccc(C(=O)NO)cc2)ccc1O | 4 | 537 | 106 | 147 | –
20 | CS(=O)(=O)Nc1cc([C@@H](O)CN[C@H](Cc2ccccc2)c2ccc(OC(F)F)cc2)ccc1O | 5 | 36 | 95 | 21 | ED50 [6]: 0.02 mg/kg; Ki [11]: 4000 nM; Activity [12]: 12 ug cm**-2 hr-1; clearance [13]: 36 mL/min/kg; half-life [14]: 7.3 h; Dose [7]: 0.1 mg/kg; Vd [15]: 10 L/kg; Intrinsic activity [16]: 45%; Activity [5]: 45%; Intrinsic activity [17]: 63%; bioavailability [18]: 5%; Margin before onset of tachycardia [19]: 5; Margin before onset of hypokalemia [20]: 25
21 | CS(=O)(=O)Nc1cc([C@@H](O)CNC(Cc2ccccc2)c2ccc(OCc3ccccc3)cc2)ccc1O (stereo partly specified) | – | – | – | 70 | –
22 | CS(=O)(=O)Nc1cc([C@@H](O)CNC(Cc2ccccc2)c2ccc(OCC(F)(F)F)cc2)ccc1O (stereo partly specified) | 1 | 83 | – | 84 | –
23 | CS(=O)(=O)Nc1cc([C@@H](O)CNC(Cc2ccccc2)c2ccc(Oc3ccccc3)cc2)ccc1O (stereo partly specified) | 0.5 | 4 | – | 990 | –
24 | CS(=O)(=O)Nc1cc(C(O)CNC(Cc2ccccc2)c2ccsc2)ccc1O (stereo unspecified) | 0.3 | 1 | 110 | 129 | –
25 | CS(=O)(=O)Nc1cc(C(O)CNC(Cc2ccccc2)c2nccs2)ccc1O (stereo unspecified) | 0.6 | 4 | 45 | 2400 | –
26 | CS(=O)(=O)Nc1cc([C@@H](O)CN[C@H](Cc2ccccc2)c2ccc(OC(F)F)c3ccccc23)ccc1O | 9 | 275 | 100 | 2 | ED50 [6]: 0.25 mg/kg; Activity [5]: 23%; Margin before onset of tachycardia [9]: 2; Margin before onset of hypokalemia [21]: 2
27 | CN(C)C(=O)c1ccc([C@@H](Cc2ccccc2)NC[C@H](O)c2ccc(O)c(NS(C)(=O)=O)c2)cc1 | 0.4 | 25 | 98 | 800 | –
28 | CS(=O)(=O)Nc1cc(C(O)CNC(Cc2ccccc2)c2ccc3sccc3c2)ccc1O (stereo unspecified) | 2 | 19 | 90 | 230 | –
29 | CS(=O)(=O)Nc1cc([C@@H](O)CN[C@H](Cc2ccccc2)c2cccc3ccccc23)ccc1O | 6 | 33 | 105 | 43 | ED50 [6]: 0.25 mg/kg; Margin before onset of hypokalemia [8]: 2; Activity [5]: 40%; Margin before onset of tachycardia [9]: 2
